Test results taken from patent US4569910A, “Methods and reagents for pyranosone production” (Cetus Corporation, priority 1984, dated 1986).

Key:
L. betulinus P2O = experiment: Relative activities of purified L. betulinus P2O on pyranose substrates; assay type: biochemical; conditions: 20 mM substrate concentration; D-glucose = 100
Protocol: The resulting clear yellow supernatant was further purified using DEAE chromatography in 30 mM TRIS-HCl, pH 8.5, and eluted from the 5×16 cm column using a 0-300 mM NaCl gradient. The protein eluted at about 75 mM NaCl. Fractions containing the peak of P2O activity were pooled and concentrated to 0.5 ml by Amicon PM30 ultrafiltration, and then fractionated, according to native molecular weight, using a 1.5×95 cm Biogel P300 column. The column was run at a flow rate of 0.1 ml per minute, using 100 mM sodium phosphate, pH 7.0. The protein eluted in a fraction corresponding to an apparent native molecular weight of about 300,000 daltons. […] Based on the molecular weight data, the protein appears to be a homotetramer.
The enzyme contains a covalently attached flavin on each subunit, and has absorption maxima at 275, 360, and 450 nm. The relative activities of the purified enzyme on the pyranose substrates D-glucose, L-sorbose, D-xylose and delta-D-gluconolactone are 100: 43: 43: 26, respectively, at 20 mM substrate concentration. The enzyme has a broad pH optimum between about 5 and 6.

C. versicolor P2O = target: T1, C. versicolor P2O (Trametes versicolor, UniProt P79076); experiment: Relative activities of purified C. versicolor P2O on pyranose substrates; assay type: biochemical; conditions: 1% (w/v) substrate concentration; D-glucose = 100
T1 construct: endogenous in cells; host or cells: Coriolus versicolor, own culture (NRRL 15152 / CMCC 0748, selected high producer; native enzyme, purified)
Protocol: The enzyme was applied to a 2.6×40 cm DEAE column, washed, and eluted using a 0-300 mM NaCl gradient. The P2O elutes at about 220 mM. Portions of each fraction were assayed for P2O activity, by monitoring peroxide generation conventionally. Protein concentration was also determined by a conventional method. The fractions containing P2O activity were pooled and concentrated by ultrafiltration with an Amicon PM10 filter obtained from Amicon Corp. Peak fractions were dialyzed into 30 mM sodium acetate (pH 5.5), adjusted to 1.5M NaCl and loaded onto a phenylsepharose column. The P2O was eluted with a 0-1.5M NaCl gradient in 50 mM sodium acetate, pH 5.5. The enzyme eluted at about 1.1M NaCl. Fractions containing the peak activity were pooled and concentrated to 0.5 ml by Amicon PM30 ultrafiltration and sized according to native molecular weight using a 1.5×95 cm Biogel P300 column. Elution was at 0.1 ml/minute with 100 mM sodium phosphate, pH 7.0. Using known molecular weight markers in the column, the enzyme's apparent native molecular weight was calculated to be about 130,000 daltons. A single band having a molecular weight of about 65,000 was observed when the enzyme was analyzed by SDS-PAGE. The enzyme thus appears to be a homodimer. The enzyme was judged to be about 95% pure, based on the staining intensity of protein bands in SDS-PAGE.
The relative activities of the enzyme on the substrates D-glucose, L-sorbose, D-xylose and delta-D-gluconolactone are 100: 74: 41: 6, respectively, at 1% (w/v) substrate concentration. The enzyme has a pH optimum of about 5.0.

P. obtusus P2O = experiment: Relative activities of purified P. obtusus P2O on pyranose substrates; assay type: biochemical; conditions: about 1% (w/v) substrate concentration; D-glucose = 100
Protocol: The P2O enzyme preparation from Example II was purified further using DEAE chromatography in 30 mM TRIS-HCl, pH 8.5, containing 2 mM EDTA and 10 ug/ml PMSF. The sample was eluted from a 5×16 cm column using a gradient of 0-300 mM NaCl. P2O activity was monitored using the orthodianisidine colorometric assay for the peroxide co-product, essentially as described by Ruelius et al., Biochim et Biophys. Acta 167, 493-500 (1968). P2O activity eluted at about 50 mM NaCl. Fractions containing the peak activity were pooled and concentrated to 0.5 ml by ultrafiltration using Amicon filters obtained from Amicon Corp. (Danvers, MA). Biogel P300 was obtained from Biorad Laboratories (Richmond, CA). The sample was further purified by molecular sieve chromatography using a 1.5×95 cm Biogel P300 column in 100 mM sodium phosphate, pH 7 buffer. The P2O activity eluted at a sharp peak corresponding to an apparent native molecular weight of about 290,000 daltons.
The enzyme appears to contain one covalently bound flavin molecule per subunit (detectable as UV-fluorescence in the 68,000 dalton SDS-PAGE band), and has absorption maxima at 276, 357 and 456 nm. The enzyme has a sedimentation coefficient of about 11.4, as determined by sucrose gradient ultracentrifugation. The relative activities of the enzyme, on D-glucose, L-sorbose, D-xylose, and D-gluconolactone are 100: 80: 48: 12, respectively, at about 1% (w/v) substrate concentration. As noted above with respect to FIG. 2, the enzyme has a broad pH optimum of between about 4.5 and 5.5.

[1] = Nonenzymatic breakdown of purified glucosone (UV scans 200-350 nm; H2O2 effect); assay type: physicochemical; conditions: for Change of 310 nm peak (nonenzymatic breakdown): 0.5% glucosone solution, scans at one minute intervals
Protocol: The conversion of a pyranose to the corresponding pyranosone by P2O in the presence of oxygen is accompanied by the stoichiometric production of H2 O2. The H2 O2 produced in the reaction may promote oxidative degradation of the product. Studies performed in support of the present application indicate that nonenzymatic breakdown of glucosone to acidic products may be accelerated at H2 O2 concentrations above about 0.2 mM. More importantly, elevated H2 O2 concentrations produce relatively rapid inactivation of the P2O enzyme. The susceptibility of P2O to inactivation by elevated concentrations of H2 O2 in a continuous-flow reactor is described below in Example XIII. Briefly, four continuous-flow reactors containing different P2O/catalase activity ratios were run in the presence of pure glucose. The half-life of the P2O enzyme in each reactor was determined from the observed change in the amount of glucosone eluting from the reactor over a several-day reaction period. The measured half-lives of P2O expressed in arbitrary half-life units, are given in Example XIII, Table 1. As will be seen from the table, the presence of catalase, at a P2O/catalase activity ratio of less than about 10^-3 and preferably less than about 2×10^-4 (i.e., at an H2 O2 concentration of less than about 0.2mM) extends the measured P2O half-life 30-60 fold with respect to that of P2O reacted with glucose in the absence of catalase.
Secondly, studies indicate that pure glucosone undergoes relatively rapid, nonenzymatic breakdown above a pH of about 7.0. […] Immediately thereafter, the solution was scanned spectrophotometrically in the UV range between 200 and 350 nm, at one minute intervals.

H2O2 concentration above which nonenzymatic breakdown to acidic products may be accelerated [1] | Structure (SMILES) | Relative activity of the enzyme on substrate (L. betulinus P2O) | Relative activity of the enzyme on substrate (C. versicolor P2O) | Relative activity of the enzyme on substrate (P. obtusus P2O) | Change of 310 nm peak (nonenzymatic breakdown) ([1]; pH 6.0) | Change of 310 nm peak (nonenzymatic breakdown) ([1]; pH 7.0, buffered)
– | O=C[C@H](O)[C@@H](O)[C@H](O)[C@H](O)CO [D-glucose] | 100 | 100 | 100 | – | –
– | O=C[C@H](O)[C@@H](O)[C@H](O)CO [D-xylose] | 43 | 41 | 48 | – | –
– | O=C(CO)[C@@H](O)[C@H](O)[C@@H](O)CO [L-sorbose] | 43 | 74 | 80 | – | –
– | O=C1O[C@H](CO)[C@@H](O)[C@H](O)[C@H]1O [delta-D-gluconolactone, D-gluconic acid delta-lactone] | 26 | 6 | 12 | – | –
above 0.2 mM | O=CC(=O)[C@@H](O)[C@H](O)[C@H](O)CO [glucosone, D-arabino-2-hexosulose] | – | – | – | no initial peak at 310 nm was observed nor did one form | increasing several-fold over a five minute period
